Results reported in patent US6706663B2, “Herbicidal 3-heterocyclic substituted benzisothiazole and benzisoxazole compounds” (Wyeth, priority 2000, dated 2004).

Assays:
ZEAMX (Corn, Field) [1] = assay: Preemergence herbicidal evaluation; assay type: in vivo, Zea mays, L.; conditions: preemergence, rated 4-5 weeks after treatment
ZEAMX (Corn, Field) [2] = assay: Postemergence herbicidal evaluation; assay type: in vivo, Zea mays, L.
Outline: (§1)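 Seedlings grown about two weeks in flats, sprayed, then kept under standard greenhouse care. Rated visually 4–5 weeks after treatment on a 0–9 scale (stand, vigour, malformation, size, chlorosis, overall appearance) relative to untreated control; repeat tests averaged.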

[3] = tested on: ECHORC (Echinochloa oryzoides); assay: Flooded paddy, preemergence weed control; assay type: in vivo, Echinochloa oryzoides (Ard.) Fritsch.; conditions: rated 3-4 weeks after treatment, 0-9 rating scale
Outline: (§2)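 Visual 0–9 ratings versus controls scored stand, vigor, malformation, size, chlorosis and overall appearance. Plants grew from seeds or propagating organs sown 0.5 cm deep in silt loam, with water held 1.5–3 cm above the soil for the whole test under greenhouse care.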

GALAP (Galium aparine) [4] = assay: Preemergence herbicidal evaluation; assay type: in vivo; conditions: preemergence, rated 4-5 weeks after treatment
Outline: (§3)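 Scores (0–9) reflect visual comparison with control plants for stand, vigor, malformation, size and chlorosis. Seeds in potting soil received a post-planting spray of compound in aqueous acetone and grew in a greenhouse until assessment 4–5 weeks later.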

[5] = tested on: GLXMAW (Soybean, Williams); assay: Preemergence herbicidal evaluation; assay type: in vivo, Glycine max, (L.) Merr. cv Williams; conditions: preemergence, rated 4-5 weeks after treatment
[6] = tested on: TRZAWR (Wheat, Winter, cv Riband); assay: Preemergence herbicidal evaluation; assay type: in vivo, Triticum aestivum; conditions: preemergence, rated 4-5 weeks after treatment
Outline: as §3

ORYSAT (Rice, Tebonnet) = assay: Preemergence herbicidal evaluation; assay type: in vivo, Oryza sativa, (L.) Tebonnet; conditions: preemergence, rated 4-5 weeks after treatment
[7] = tested on: GLXMAW (Soybean, Williams); assay: Postemergence herbicidal evaluation; assay type: in vivo, Glycine max, (L.) Merr. cv Williams
Outline: as §1

CYPIR (Cyperus iria) = assay: Flooded paddy, preemergence weed control; assay type: in vivo; conditions: rated 3-4 weeks after treatment, 0-9 rating scale
Outline: as §2

[8] = tested on: IPOHE (Ipomoea hederacea); assay: Preemergence herbicidal evaluation; assay type: in vivo, (L.) Jacq.; conditions: preemergence, rated 4-5 weeks after treatment
GALAP (Galium aparine) [9] = assay: Postemergence herbicidal evaluation; assay type: in vivo
Outline: as §1

[10] = tested on: CASOB (Cassia obtusifolia); assay: Preemergence herbicidal evaluation; assay type: in vivo, L.; conditions: preemergence, rated 4-5 weeks after treatment
Outline: as §3

[11] = tested on: CHEAL (Chenopodium album); assay: Preemergence herbicidal evaluation; assay type: in vivo, L.; conditions: preemergence, rated 4-5 weeks after treatment
Outline: as §3

[12] = tested on: AMBEL (Ambrosia artemisifolia); assay: Preemergence herbicidal evaluation; assay type: in vivo, L.; conditions: preemergence, rated 4-5 weeks after treatment
Outline: as §3

[13] = tested on: CASOB (Cassia obtusifolia); assay: Postemergence herbicidal evaluation; assay type: in vivo, L.
Outline: as §1

[14] = tested on: CHEAL (Chenopodium album); assay: Postemergence herbicidal evaluation; assay type: in vivo, L.
Outline: as §1

[15] = tested on: AMBEL (Ambrosia artemisifolia); assay: Postemergence herbicidal evaluation; assay type: in vivo, L.
Outline: as §1

[16] = tested on: CYPSE (Cyperus serotinus); assay: Flooded paddy, preemergence weed control; assay type: in vivo, Rottb.; conditions: rated 3-4 weeks after treatment, 0-9 rating scale
Outline: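 Seeds or propagules were planted 0.5 cm deep in silt loam and flooded to 1.5–3 cm. Compounds in 50/50 v/v aqueous/acetone were pipetted into the flood water at about 0.0080 to 0.1250 kg/ha. After 3–4 weeks in the greenhouse, effect was rated visually on a 0–9 scale versus untreated control.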

[17] = tested on: ABUTH (Abutilon theophrasti); assay: Postemergence herbicidal evaluation; assay type: in vivo, Medic.
Outline: as §1

[18] = tested on: ECHCG (Echinochloa crus-galli); assay: Postemergence herbicidal evaluation; assay type: in vivo, (L.) Beau
Outline: as §1

[19] = tested on: IPOHE (Ipomoea hederacea); assay: Postemergence herbicidal evaluation; assay type: in vivo, (L.) Jacq.
Outline: as §1

Cc1ccc(-c2nsc3ccc(N4C(=O)C5=C(CCCC5)C4=O)cc23)s1 [Compound 20, N-[3-(5-methyl-2-thienyl)-1,2-benzisothiazol-5-yl]-1-cyclohexene-1,2-dicarboximide]
ZEAMX preemergence herbicidal rating (ZEAMX (Corn, Field) [1]; Rate 0.0620 kg/ha): 0.0 | ZEAMX preemergence herbicidal rating (ZEAMX (Corn, Field) [1]; Rate 0.1250 kg/ha): 0.0 | ZEAMX preemergence herbicidal rating (ZEAMX (Corn, Field) [1]; Rate 0.2500 kg/ha): 0.0 | Postemergence herbicidal rating, ZEAMX (ZEAMX (Corn, Field) [2]; rate 0.0320 kg/ha): 5.0 | Postemergence herbicidal rating, ZEAMX (ZEAMX (Corn, Field) [2]; rate 0.0620 kg/ha): 5.0 | Postemergence herbicidal rating, ZEAMX (ZEAMX (Corn, Field) [2]; rate 0.1250 kg/ha): 5.5 | herbicidal rating, ECHORC ([3]; rate 0.0320 kg/ha): 5.0 | herbicidal rating, ECHORC ([3]; rate 0.1250 kg/ha): 7.0 | GALAP preemergence herbicidal rating (GALAP (Galium aparine) [4]; Rate 0.0620 kg/ha): 0.0 | GALAP preemergence herbicidal rating (GALAP (Galium aparine) [4]; Rate 0.1250 kg/ha): 0.0 | GALAP preemergence herbicidal rating (GALAP (Galium aparine) [4]; Rate 0.2500 kg/ha): 3.0 | GLXMAW preemergence herbicidal rating ([5]; Rate 0.0620 kg/ha): 0.0 | GLXMAW preemergence herbicidal rating ([5]; Rate 0.1250 kg/ha): 0.0 | GLXMAW preemergence herbicidal rating ([5]; Rate 0.2500 kg/ha): 0.0 | TRZAWR preemergence herbicidal rating ([6]; Rate 0.0620 kg/ha): 0.0 | TRZAWR preemergence herbicidal rating ([6]; Rate 0.1250 kg/ha): 0.0 | TRZAWR preemergence herbicidal rating ([6]; Rate 0.2500 kg/ha): 0.0 | ORYSAT preemergence herbicidal rating (ORYSAT (Rice, Tebonnet); Rate 0.0620 kg/ha): 0.0 | ORYSAT preemergence herbicidal rating (ORYSAT (Rice, Tebonnet); Rate 0.1250 kg/ha): 0.0 | ORYSAT preemergence herbicidal rating (ORYSAT (Rice, Tebonnet); Rate 0.2500 kg/ha): 0.0 | Postemergence herbicidal rating, GLXMAW ([7]; rate 0.0320 kg/ha): 5.5 | Postemergence herbicidal rating, GLXMAW ([7]; rate 0.0620 kg/ha): 5.5 | Postemergence herbicidal rating, GLXMAW ([7]; rate 0.1250 kg/ha): 5.5 | herbicidal rating, CYPIR (CYPIR (Cyperus iria); rate 0.0320 kg/ha): 2.0 | herbicidal rating, CYPIR (CYPIR (Cyperus iria); rate 0.1250 kg/ha): 3.0 | IPOHE preemergence herbicidal rating ([8]; Rate 0.0620 kg/ha): 0.0 | IPOHE preemergence herbicidal rating ([8]; Rate 0.1250 kg/ha): 0.0 | IPOHE preemergence herbicidal rating ([8]; Rate 0.2500 kg/ha): 0.0 | Postemergence herbicidal rating, GALAP (GALAP (Galium aparine) [9]; rate 0.0320 kg/ha): 1.0 | Postemergence herbicidal rating, GALAP (GALAP (Galium aparine) [9]; rate 0.0620 kg/ha): 1.0 | Postemergence herbicidal rating, GALAP (GALAP (Galium aparine) [9]; rate 0.1250 kg/ha): 1.0 | CASOB preemergence herbicidal rating ([10]; Rate 0.0620 kg/ha): 0.0 | CASOB preemergence herbicidal rating ([10]; Rate 0.1250 kg/ha): 0.0 | CASOB preemergence herbicidal rating ([10]; Rate 0.2500 kg/ha): 2.0 | CHEAL preemergence herbicidal rating ([11]; Rate 0.0620 kg/ha): 0.0 | CHEAL preemergence herbicidal rating ([11]; Rate 0.1250 kg/ha): 2.0 | CHEAL preemergence herbicidal rating ([11]; Rate 0.2500 kg/ha): 3.0 | AMBEL preemergence herbicidal rating ([12]; Rate 0.0620 kg/ha): 0.0 | AMBEL preemergence herbicidal rating ([12]; Rate 0.1250 kg/ha): 1.0 | AMBEL preemergence herbicidal rating ([12]; Rate 0.2500 kg/ha): 2.0 | Postemergence herbicidal rating, CASOB ([13]; rate 0.0320 kg/ha): 1.0 | Postemergence herbicidal rating, CASOB ([13]; rate 0.0620 kg/ha): 1.0 | Postemergence herbicidal rating, CASOB ([13]; rate 0.1250 kg/ha): 1.0 | Postemergence herbicidal rating, CHEAL ([14]; rate 0.0320 kg/ha): 3.0 | Postemergence herbicidal rating, CHEAL ([14]; rate 0.0620 kg/ha): 5.0 | Postemergence herbicidal rating, CHEAL ([14]; rate 0.1250 kg/ha): 5.0 | Postemergence herbicidal rating, AMBEL ([15]; rate 0.0320 kg/ha): 6.0 | Postemergence herbicidal rating, AMBEL ([15]; rate 0.0620 kg/ha): 6.0 | Postemergence herbicidal rating, AMBEL ([15]; rate 0.1250 kg/ha): 9.0 | herbicidal rating, CYPSE ([16]; rate 0.0320 kg/ha): 4.0 | herbicidal rating, CYPSE ([16]; rate 0.1250 kg/ha): 7.0 | Postemergence herbicidal rating, ABUTH ([17]; rate 0.0320 kg/ha): 7.0 | Postemergence herbicidal rating, ABUTH ([17]; rate 0.0620 kg/ha): 9.0 | Postemergence herbicidal rating, ABUTH ([17]; rate 0.1250 kg/ha): 9.0 | Postemergence herbicidal rating, ECHCG ([18]; rate 0.0320 kg/ha): 1.0 | Postemergence herbicidal rating, ECHCG ([18]; rate 0.0620 kg/ha): 1.0 | Postemergence herbicidal rating, ECHCG ([18]; rate 0.1250 kg/ha): 1.0 | Postemergence herbicidal rating, IPOHE ([19]; rate 0.0320 kg/ha): 6.0 | Postemergence herbicidal rating, IPOHE ([19]; rate 0.0620 kg/ha): 9.0 | Postemergence herbicidal rating, IPOHE ([19]; rate 0.1250 kg/ha): 9.0
